Assays:
diaphragm = assay: dulcitol (galactitol) accumulation in the diaphragm of galactose-fed (galactosemic) rats; assay type: in vivo, rat (Sprague-Dawley); settings: 4 days
From the text: (§1) The aldose reductase inhibiting property of the compounds of this invention and the utilization of the compounds in preventing, diminishing and alleviating diabetic complications are demonstrable in experiments using galactosemic rats, see Dvornik et al., Science, 182, 1146 (1973). Such experiments are exemplified hereinbelow after the listing of the following general comments pertaining to these experiments:
(§2) (a) Four or more groups of six male rats, 50-70 g, Sprague-Dawley strain, were used. The first group, the control group, was fed a mixture of laboratory chow (rodent Laboratory Chow, Purina) and glucose at 20% (w/w %) concentration. An untreated galactosemic group was fed a similar diet in which galactose was substituted for glucose. The third group was fed a diet prepared by mixing a given amount of the test compound with the galactose containing diet. The concentration of galactose in the diet of the treated groups was the same as that for the untreated galactosemic group.
(§3) (b) After four days, the animals were killed by euthanization. Both the lens and sciatic nerve were removed, weighed and stored frozen for polyol determination.
(§4) (c) The polyol determination was performed by a modification of the procedure of M. Kraml and L. Cosyns, Clin. Biochem., 2, 373 (1969). Only two minor reagent changes were made: (a) the rinsing mixture was an aqueous 5% (w/v) trichloroacetic acid solution and (b) the stock solution was prepared by dissolving 25 mg of dulcitol in 100 ml of an aqueous trichloroacetic acid solution. [N.B.: For each experiment the average value found in the tissue from rats fed the glucose diet was substracted from the individual values found in the corresponding tissue in galactose-fed rats to obtain the amount of polyol accumulated.] The aldose reductase inhibiting effects of the compounds of formula (I) were also tested by employing an in vitro testing procedure similar to that described by S. Hayman and J. H. Kinoshita, J. Biol. Chem., 240, 877 (1965). In the present case the procedure of Hayman and Kinoshita was modified in that the final chromatography step was omitted in the preparation of the enzyme from bovine lens.
(§5) The figures under L, N, and D represent the percentage decrease of dulcitol accumulation in the tissues of the lens, sciatic nerve, and diaphragm, respectively, for treated rats as compared to untreated rats.

aldose reductase = biological target: T1, aldose reductase (Bos taurus, UniProt P16116); assay: in vitro aldose reductase inhibition (modified Hayman and Kinoshita procedure, enzyme from bovine lens); assay type: biochemical; settings: for inhibition at 1 µM: 10^-6 M; for inhibition at 10 µM: 10^-5 M
T1 construct: preparation of the enzyme from bovine lens; from tissue; host or cells: bovine lens
Method: as §4

sciatic nerve = assay: dulcitol (galactitol) accumulation in the sciatic nerve of galactose-fed (galactosemic) rats; assay type: in vivo, rat (Sprague-Dawley); settings: 4 days
From the text: as §1, §2, §3, §4, §5

lens = assay: dulcitol (galactitol) accumulation in the lens of galactose-fed (galactosemic) rats; assay type: in vivo, rat (Sprague-Dawley); settings: 10.2 mg/kg in diet, 4 days
From the text: as §1, §2, §3
(c) The polyol determination was performed by a modification of the procedure of M. Kraml and L. Cosyns, Clin. Biochem., 2, 373 (1969). […]

SMILES: CCN1C(=O)CC2(C1=O)C(=O)N(Cc1nc3cc(C(F)(F)F)ccc3s1)C(=O)c1ccc(F)cc12 (centres unmarked) [R1=F, R4=C2 H5, R5=CF3, 1'-ethyl-6-fluoro-2-[[5-(trifluoromethyl)-2-benzothiazolyl]methyl]spiro[isoquinoline-4(1H),3'-pyrrolidine]-1,2',3,5'(2H)-tetrone]
- % Lowering Galactitol Accumulation In Vivo, (%) D (diaphragm; 10 mg/kg/day in diet): 59%
- inhibition at 1 µM (aldose reductase): 0%

SMILES: CCN1C(=O)CC2(C1=O)C(=O)N(Cc1ccc(Br)cc1F)C(=O)c1ccc(F)cc12 (centres unmarked) [R1=F, R4=CH2 CH3, 2-[(4-bromo-2-fluorophenyl)methyl]-1'-ethyl-6-fluorospiro[isoquinoline-4(1H),3'-pyrrolidine]-1,2',3,5'(2H)-tetrone]
- % lowering dulcitol accumulation in vivo, % D (diaphragm; 0.5 mg/kg in diet): 65%
- % lowering dulcitol accumulation in vivo, % D (diaphragm; 1.0 mg/kg in diet): 84%
- % lowering dulcitol accumulation in vivo, % N (sciatic nerve; 0.5 mg/kg in diet): 19%
- % lowering dulcitol accumulation in vivo, % N (sciatic nerve; 1.0 mg/kg in diet): 74%
- inhibition at 10 µM (aldose reductase): 0%

SMILES: CCN1C(=O)CC2(C1=O)C(=O)N(Cc1ccc(Br)cc1F)C(=O)c1ccccc12 (centres unmarked) [R1=H, R4=CH2 CH3, 2-[(4-bromo-2-fluorophenyl)methyl]-1'-ethylspiro[isoquinoline-4(1H), 3'-pyrrolidine]-1,2',3,5'(2H)-tetrone]
- % lowering dulcitol accumulation in vivo, % D (diaphragm; 0.5 mg/kg in diet): 56%
- % lowering dulcitol accumulation in vivo, % D (diaphragm; 0.9 mg/kg in diet): 73%
- % lowering dulcitol accumulation in vivo, % N (sciatic nerve; 0.5 mg/kg in diet): 37%
- % lowering dulcitol accumulation in vivo, % N (sciatic nerve; 0.9 mg/kg in diet): 65%
- inhibition at 10 µM (aldose reductase): 0%

SMILES: CN1C(=O)CC2(C1=O)C(=O)N(Cc1ccc(Br)cc1F)C(=O)c1ccccc12 (centres unmarked) [R1=H, R4=CH3, 2-[(4-bromo-2-fluorophenyl)methyl]-1'-methylspiro[isoquinoline-4(1H), 3'-pyrrolidine]-1,2',3,5'(2H)-tetrone]
- % lowering dulcitol accumulation in vivo, % D (diaphragm; 0.5 mg/kg in diet): 61%
- % lowering dulcitol accumulation in vivo, % D (diaphragm; 1.1 mg/kg in diet): 75%
- % lowering dulcitol accumulation in vivo, % D (diaphragm; 10.2 mg/kg in diet): 94%
- % lowering dulcitol accumulation in vivo, % N (sciatic nerve; 0.5 mg/kg in diet): 50%
- % lowering dulcitol accumulation in vivo, % N (sciatic nerve; 1.1 mg/kg in diet): 76%
- % lowering dulcitol accumulation in vivo, % N (sciatic nerve; 10.2 mg/kg in diet): 95%
- % lowering dulcitol accumulation in vivo, % L (lens): 31%
- inhibition at 10 µM (aldose reductase): 0%

SMILES: CN1C(=O)CC2(C1=O)C(=O)N(Cc1nc3cc(C(F)(F)F)ccc3s1)C(=O)c1ccccc12 (centres unmarked) [R1=H, R4=CH3, R5=CF3, 2-[[5-(trifluoromethyl)-2-benzothiazolyl]methyl]-1'-methylspiro[isoquinoline-4(1H),3'-pyrrolidine]-1,2',3,5'(2H)-tetrone]
- % Lowering Galactitol Accumulation In Vivo, (%) D (diaphragm; 9.5 mg/kg/day in diet): 100%
- % Lowering Galactitol Accumulation In Vivo, (%) N (sciatic nerve; 9.5 mg/kg/day in diet): 82%
- inhibition at 1 µM (aldose reductase): 0%
